Measurements from patent publication US9611262B2, “Substituted 2-azabicycles and their use as orexin receptor modulators” (JANSSEN PHARMACEUTICA NV, priority 2014, dated 2017).

Legend:
rat orexin 1 receptor = rat orexin 1 receptor (Rattus norvegicus, UniProt P56718); assay: Rat orexin 1 receptor radioligand binding (competitive); conditions: HEK293 cells stably expressing rat orexin 1 receptor; 4 nM radioligand; averages of 2-20 runs; read-out: rOX1 Ki
Outline: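 Competition binding used HEK293 cells expressing rat OX1 or CHO cells expressing human OX1, with 4 nM final [3H]-labelled thiazolyl-oxadiazolyl-pyrrolidinyl methanone radioligand in PBS. Compounds were tested at 7 concentrations (0.1 nM–10 μM) for 60 min at room temperature, then filtered; 10 μM almorexant defined nonspecific binding. Ki was derived from the one-site IC50 and the radioligand Kd.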

human orexin 1 receptor = human orexin 1 receptor (Homo sapiens (Human), UniProt O43613); assay: Human orexin 1 receptor radioligand binding (competitive); conditions: CHO cells stably expressing human orexin 1 receptor; 4 nM radioligand; averages of 2-20 runs; read-out: hOX1 Ki
Description: The in vitro affinity of the compounds of the invention for the rat/human orexin 1 and human orexin 2 receptors was determined by competitive radioligand binding using [^3H](1-(5-(2-fluoro-phenyl)-2-methyl-thiazol-4-yl)-1-((S)-2-(5-phenyl-(1,3,4)oxadiazol-2-ylmethyl)-pyrrolidin-1-yl)-methanone) (Langmead et al., 2004) and [^3H]EMPA (n-ethyl-2[96-methoxy-pyridin-3-yl)-(toluene-2-sulfonyl)-amino]-N-pyridin-3-ylmethyl acetamide), respectively (Langmead et al., 2004, British Journal of Pharmacology 141:340-346; Malherbe et al., 2004, British Journal of Pharmacology 156:1326-41).
Data are analyzed using pc-Sandy macro and graphed on Graphpad Prism 5. For analysis, each concentration point is averaged from triplicate values and the averaged values are plotted on Graphpad Prism. The IC50 was determined by applying the following equation (GraphPad Prism 5.0, San Diego) for one site competition where X=log (concentration) and Y=specific binding. Top denotes the total [^3H]— (1-(5-(2-fluoro-phenyl)-2-methyl-thiazol-4-yl)-1-((S)-2-(5-phenyl-(1,3,4)oxadiazol-2-ylmethyl)-pyrrolidin-1-yl)-methanone) binding, bottom denotes the nonspecific [^3H]— (1-(5-(2-fluoro-phenyl)-2-methyl-thiazol-4-yl)-1-((S)-2-(5-phenyl-(1,3,4)oxadiazol-2-ylmethyl)-pyrrolidin-1-yl)-methanone) binding. Graphpad Prism calculates Ki value from IC50 and the pre-determined Kd values for [^3H]— (1-(5-(2-fluoro-phenyl)-2-methyl-thiazol-4-yl)-1-((S)-2-(5-phenyl-(1,3,4)oxadiazol-2-ylmethyl)-pyrrolidin-1-yl)-methanone) and [^3H]-EMPA. The Ki for each compound is then uploaded into 3DX. Each run comprises individual compounds in triplicate. The data in Table 1 and Table 2 represent averages from between 2-20 runs
Rat and Human Orexin 1 Receptor Radioligand Binding Studies
Human Embryonic Kidney 293 cells (HEK293) stably expressing rat orexin 1 receptor (Genebank accession number NM_001525) or Chinese ovary cells (CHO) stably expressing human orexin 1 receptor (Genebank accession number […]) were grown to confluency in DMEM (Hyclone, cat # SH30022), 10% FBS, 1× Pen/Strep, 1× sodium pyruvate, 10 mM HEPES, 600 μg/mL G418 and DMEM/F12 (Gibco, Cat #11039), 10% FBS, 1× Pen/Strep, 600 μg/mL G418 media, respectively on 150 cm^2 tissue culture plates, washed with 5 mM EDTA in PBS (HyClone Dulbecco's Phosphate Buffered Saline 1× with Calcium and Magnesium, Cat # SH30264.01, hereafter referred to simply as PBS) and scraped into 50 ml tubes. After centrifugation (2K×G, 5 min at 4° C.), the supernatant was aspirated and the pellets frozen and stored at −80° C. Cells were resuspended in PBS in the presence of 1 tablet of protease inhibitor cocktail (Roche, Cat. #11836145001) per 50 mL. […] Competition binding experiments in 96 well polypropylene plates were performed using [^3H]— (1-(5-(2-fluoro-phenyl)-2-methyl-thiazol-4-yl)-1-((S)-2-(5-phenyl-(1,3,4)oxadiazol-2-ylmethyl)-pyrrolidin-1-yl)-methanone) (Moraveck Corporation, specific activity=35.3 Ci/mmol), diluted to a 10 nM concentration in PBS (4 nM final). Compounds were solubilized in 100% DMSO (Acros Organics, Cat. #61042-1000) and tested over a range of 7 concentrations (from 0.1 nM to 10 μM). The final concentration of DMSO in the reactions is equal to or less than 0.1%. Total and nonspecific binding was determined in the absence and presence of 10 μM almorexant. The total volume of each reaction is 200 μL (20 μL of diluted compounds, 80 μL of [^3H]— (1-(5-(2-fluoro-phenyl)-2-methyl-thiazol-4-yl)-1-((S)-2-(5-phenyl-(1,3,4)oxadiazol-2-ylmethyl)-pyrrolidin-1-yl)-methanone) diluted in PBS and 100 μL of the cell suspension). Reactions were run for 60 min at room temperature and terminated by filtration through GF/C filter plates (PerkinElmer, Cat. #6005174) presoaked in 0.3% polyethylenimine using the cell harvester (PerkinElmer Filtermate). The plates were washed 3 times by aspirating 30 ml PBS through the plates. Plates were dried in 55° C. oven for 60 min, scintillation fluid was added, and the radioactivity was counted on a Topcount (Packard). […]

human orexin 2 receptor = human orexin 2 receptor (Homo sapiens (Human), UniProt O43614); assay: Human orexin 2 receptor radioligand binding ([3H]-EMPA competition); conditions: HEK293 stably expressing human orexin 2 receptor; 2 nM [3H]-EMPA; averages of 2-20 runs; read-out: hOX2 Ki
Outline: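 Membranes-free whole HEK293 cells stably expressing human OX2 receptor incubated with [3H]-EMPA and compound (7 concentrations, 0.1 nM–10 μM, ≤0.1% DMSO) for 60 min at room temperature; nonspecific binding with 10 μM almorexant. Filtration and scintillation counting; one-site IC50 converted to Ki using predetermined Kd, triplicates averaged over 2-20 runs.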

Chain of human orexin 2 receptor (O43614 whole entry): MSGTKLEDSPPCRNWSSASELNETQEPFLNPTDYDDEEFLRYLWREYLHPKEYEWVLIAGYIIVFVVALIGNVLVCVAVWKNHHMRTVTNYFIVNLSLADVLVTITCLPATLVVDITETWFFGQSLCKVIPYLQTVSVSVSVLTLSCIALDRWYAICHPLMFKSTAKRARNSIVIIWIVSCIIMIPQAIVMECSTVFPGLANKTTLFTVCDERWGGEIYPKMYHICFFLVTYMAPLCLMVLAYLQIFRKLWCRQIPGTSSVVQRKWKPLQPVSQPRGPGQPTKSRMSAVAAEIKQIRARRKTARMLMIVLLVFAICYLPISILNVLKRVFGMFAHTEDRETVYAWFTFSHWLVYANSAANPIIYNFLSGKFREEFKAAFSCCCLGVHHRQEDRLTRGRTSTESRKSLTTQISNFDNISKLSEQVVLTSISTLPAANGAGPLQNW
Chain of human orexin 1 receptor (O43613 whole entry): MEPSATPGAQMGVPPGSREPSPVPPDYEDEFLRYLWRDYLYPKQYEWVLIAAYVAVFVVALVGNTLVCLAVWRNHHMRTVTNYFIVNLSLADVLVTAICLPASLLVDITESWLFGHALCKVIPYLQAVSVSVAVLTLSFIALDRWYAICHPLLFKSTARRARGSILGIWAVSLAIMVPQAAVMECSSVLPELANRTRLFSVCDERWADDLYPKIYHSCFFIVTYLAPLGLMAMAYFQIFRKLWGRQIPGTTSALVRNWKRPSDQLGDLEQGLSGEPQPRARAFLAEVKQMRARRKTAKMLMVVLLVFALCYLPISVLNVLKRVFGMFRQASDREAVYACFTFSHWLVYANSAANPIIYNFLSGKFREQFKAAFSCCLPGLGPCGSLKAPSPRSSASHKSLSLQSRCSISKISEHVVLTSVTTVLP

Row | Structure (SMILES) | Ki (rat orexin 1 receptor) | Ki (human orexin 1 receptor) | Ki (human orexin 2 receptor)
1 | Cc1ccc(-n2nccn2)c(C(=O)N2[C@H](C)[C@H]3C[C@@H](Oc4cnc(C(F)(F)F)cn4)[C@@H]2C3)n1 (relative stereo) [Example 46, (6-methyl-3-(2H-1,2,3-triazol-2-yl)pyridin-2-yl)((1S*,3R*,4R*,6R*)-3-methyl-6-((5-(trifluoromethyl)pyrazin-2-yl)oxy)-2-azabicyclo[2.2.1]heptan-2-yl)methanone] | 24 nM | 29 nM | 4300 nM
2 | Cc1ccc(-n2nccn2)c(C(=O)N2[C@H](C)[C@H]3C[C@@H](Oc4cnc5cc(F)c(F)cc5n4)[C@@H]2C3)n1 (relative stereo) [Example 189, ((1S*,3R*,4R*,6R*)-6-((6,7-difluoroquinoxalin-2-yl)oxy)-3-methyl-2-azabicyclo[2.2.1]heptan-2-yl)(6-methyl-3-(2H-1,2,3-triazol-2-yl)pyridin-2-yl)methanone] | 41 nM | 42 nM | 109 nM
3 | Cc1ccc(-c2ncccn2)c(C(=O)N2[C@H](CF)[C@@H]3CC[C@H]2[C@H](Oc2ccc(C(F)(F)F)cn2)C3)n1 [Example 74, ((1S,3S,4R,6R)-3-(fluoromethyl)-6-((5-(trifluoromethyl)pyridin-2-yl)oxy)-2-azabicyclo[2.2.2]octan-2-yl)(6-methyl-3-(pyrimidin-2-yl)pyridin-2-yl)methanone] | 48 nM | 35 nM | 3760 nM
4 | O=C(c1c(F)cccc1-c1ncco1)N1C(CF)C2CC(Oc3ccc(C(F)(F)F)cn3)C1C2 (racemic) [Example 71] | 32 nM | 29 nM | 1500 nM
5 | C[C@@H]1[C@H]2C[C@@H](Oc3ccc(C(F)(F)F)cn3)[C@H](C2)N1C(=O)c1ccccc1-c1ccc(F)nc1 [Example 171, [2-(6-fluoro-3-pyridyl)phenyl]-[(1R,2R,4S,5R)-2-methyl-5-[[5-(trifluoromethyl)-2-pyridyl]oxy]-3-azabicyclo[2.2.1]heptan-3-yl]methanone] | 23 nM | 17 nM | 1600 nM
6 | Cc1ccc(-n2nccn2)c(C(=O)N2[C@H](C)[C@@H]3CC[C@H]2[C@H](Oc2ccc(C(F)(F)F)cn2)C3)n1 [Example 156, [6-methyl-3-(triazol-2-yl)-2-pyridyl]-[(1R,2R,4S,5R)-2-methyl-5-[[5-(trifluoromethyl)-2-pyridyl]oxy]-3-azabicyclo[2.2.2]octan-3-yl]methanone] | 6 nM | 10 nM | 1100 nM
7 | Cc1ccc(-n2nccn2)c(C(=O)N2[C@H](CF)[C@@H]3CC[C@H]2[C@H](Oc2ccc(C(F)(F)F)cn2)C3)n1 [Example 77, ((1S,3S,4R,6R)-3-(fluoromethyl)-6-((5-(trifluoromethyl)pyridin-2-yl)oxy)-2-azabicyclo[2.2.2]octan-2-yl)(6-methyl-3-(2H-1,2,3-triazol-2-yl)pyridin-2-yl)methanone] | 13 nM | 20 nM | 4780 nM
8 | C[C@@H]1[C@H]2C[C@@H](Oc3ccc(C(F)(F)F)cn3)[C@H](C2)N1C(=O)c1ncccc1-c1ncccn1 (relative stereo) [Example 32, ((1S*,3R*,4R*,6R*)-3-methyl-6-((5-(trifluoromethyl)pyridin-2-yl)oxy)-2-azabicyclo[2.2.1]heptan-2-yl)(3-(pyrimidin-2-yl)pyridin-2-yl)methanone] | 6 nM | 8 nM | 1900 nM
9 | CCC1C2CC(Oc3ccc(C(F)(F)F)cn3)C(C2)N1C(=O)c1ncc(C)cc1-n1nccn1 (racemic) [Example 216, (R/S)-[2-ethyl-5-[[5-(trifluoromethyl)-2-pyridyl]oxy]-3-azabicyclo[2.2.1]heptan-3-yl]-[5-methyl-3-(triazol-2-yl)-2-pyridyl]methanone] | 11 nM | 11 nM | 1500 nM
10 | C[C@@H]1[C@@H]2CC[C@@H]([C@H](Oc3ccc(C(F)(F)F)cn3)C2)N1C(=O)c1ncccc1-n1nccn1 [Example 159, [(1R,2R,4S,5R)-2-methyl-5-[[5-(trifluoromethyl)-2-pyridyl]oxy]-3-azabicyclo[2.2.2]octan-3-yl]-[3-(triazol-2-yl)-2-pyridyl]methanone] | 14 nM | 41 nM | 2800 nM
11 | C[C@@H]1[C@H]2C[C@@H](Oc3ccc(C(F)(F)F)cn3)[C@H](C2)N1C(=O)c1ccccc1-c1cccc(Br)n1 [Example 175, [2-(6-bromo-2-pyridyl)phenyl]-[(1R,2R,4S,5R)-2-methyl-5-[[5-(trifluoromethyl)-2-pyridyl]oxy]-3-azabicyclo[2.2.1]heptan-3-yl]methanone] | 13 nM | 15 nM | 837 nM
12 | C[C@@H]1[C@H]2C[C@@H](Oc3cnc(C(F)(F)F)cn3)[C@H](C2)N1C(=O)c1ncccc1-n1nccn1 (relative stereo) [Example 47, (3-(2H-1,2,3-triazol-2-yl)pyridin-2-yl)((1S*,3R*,4R*,6R*)-3-methyl-6-((5-(trifluoromethyl)pyrazin-2-yl)oxy)-2-azabicyclo[2.2.1]heptan-2-yl)methanone] | 68 nM | 151 nM | > 10000 nM
13 | C[C@@H]1[C@@H]2CC[C@@H]([C@H](Oc3ccc(C(F)(F)F)cn3)C2)N1C(=O)c1cccc(F)c1-c1ncccn1 [Example 148, (3-fluoro-2-pyrimidin-2-yl-phenyl)-[(1R,2R,4S,5R)-2-methyl-5-[[5-(trifluoromethyl)-2-pyridyl]oxy]-3-azabicyclo[2.2.2]octan-3-yl]methanone] | 12 nM | 14 nM | 2400 nM
14 | CC(C)CC1C2CC(Oc3ccc(C(F)(F)F)cn3)C(C2)N1C(=O)c1ccccc1-c1ncccn1 (racemic) [Example 209, (R/S)-[2-isobutyl-5-[[5-(trifluoromethyl)-2-pyridyl]oxy]-3-azabicyclo[2.2.1]heptan-3-yl]-(2-pyrimidin-2-ylphenyl)methanone] | 44 nM | 24 nM | 3000 nM
15 | CC1C2CC(Oc3ccc(C(F)(F)F)cn3)C(C2)N1C(=O)c1ncccc1-c1ncccn1 (racemic) [Example 14] | 11 nM | 13 nM | 3700 nM
